By AC50 is commonly meant the concentration giving half of the maximal activity seen.

Several values for one entry are separate records, joined by “and”; a condition that tells them apart may be missing. Equal values may be shown once. Results filed as inconclusive are left out. Activity calls are given as the source filed them.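 Rule for the calls: active = compound whose fitted half-maximal inhibitory dose is at most twice its top valid dose in every replicate test; inconclusive = replicate test calls disagree with one another; inactive = all replicate tests inactive, including opposite-direction effects.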

The target of the first assay is UDP-N-acetylbacillosamine N-acetyltransferase PglD (Campylobacter jejuni). The assay is described as follows: PglD acetyltransferase inhibitors, dose response, biochemical, DTNB absorbance, dry powder samples, set 4 (AID 686993). The conditions noted are these: purified PglD, DTNB absorbance 412 nm, CoA release.
Consider `Cc1c(C(=O)O)sc2nc(/C=C/c3cccc(C(F)(F)F)c3)[nH]c(=O)c12`, for which the AC50 was 29.1 µM.

With `Cc1c(C(=O)O)sc2nc(/C=C/c3ccccc3)[nH]c(=O)c12`, the AC50 is 8.04 µM. In the case of `Cc1c(C(=O)O)sc2nc(/C=C/c3cccc(F)c3)[nH]c(=O)c12`, the AC50 was 7.23 µM.

`Cc1c(C(=O)O)sc2nc(/C=C/c3cccc(O)c3)[nH]c(=O)c12`: the AC50 was 11.7 µM and 1.93 µM. On to `Cc1c(C(=O)O)sc2nc(/C=C/c3cccc(C(N)=O)c3)[nH]c(=O)c12`, for which the AC50 was 17.6 µM. On the same count and under the same terms, to `Cc1c(C(=O)O)sc2nc(/C=C/C=C/c3ccccc3)[nH]c(=O)c12` belongs 18.2 µM; to `Cc1c(C(=O)O)sc2nc(/C=C/c3ccc4[nH]ccc4c3)[nH]c(=O)c12`, 3.97 µM; to `Cc1c(C(=O)O)sc2nc(/C=C/c3ccccn3)[nH]c(=O)c12`, 2.58 µM. Same read-out and setting: the same measure for `Cc1c(C(=O)O)sc2nc(/C=C/c3cc4ccccc4cn3)[nH]c(=O)c12`: 4.54 µM. Consider `Cc1c(C(=O)O)sc2nc(/C=C/c3ccc(N)nc3)[nH]c(=O)c12`, for which the AC50 was 14.6 µM. Same read-out and setting: the same measure for `Cc1c(C(=O)O)sc2nc(/C=C/c3ccc4cc[nH]c4c3)[nH]c(=O)c12`: 7.87 µM; for `Cc1c(C(=O)O)sc2nc(CCc3cccc(O)c3)[nH]c(=O)c12`: 8.28 µM; for `Cc1c(C(=O)O)sc2nc(/C=C/c3ccc4ccccc4c3)[nH]c(=O)c12`: 30.5 µM.

The same assay, now with this note: purified PglD, DTNB absorbance 412 nm, CoA release; at 10 µM (top of the series).
Turning to `Cc1c(C(=O)O)sc2nc(/C=C/c3ccncc3)[nH]c(=O)c12`, the “activity change, negative = inhibition” value is “inactive”. The same measure, in the same setting: the same measure for `Cc1c(C(=O)O)sc2nc(/C=C/c3cnc4ccccc4c3)[nH]c(=O)c12`: “inactive”.

The assay is the same for the next values; noted with them: purified PglD, DTNB absorbance 412 nm, CoA release; at 38 µM (top of the series).
For the compound `Cc1c(C(=O)O)sc2nc(/C=C/c3cccc(O)c3)[nH]c(=O)c12`, the “activity change, negative = inhibition” value was “inactive”.

Consider `Cc1c(C(=O)O)sc2nc(/C=C/c3ccnc4ccccc34)[nH]c(=O)c12`, for which the “activity change, negative = inhibition” value is “inactive”. Same read-out and setting: to `Cc1c(C(=O)O)sc2nc(/C=C/C3CC3)[nH]c(=O)c12` belongs “inactive”.

(Values after PubChem BioAssay AID686993 (Broad Institute, 2013).)
